Data from PMC6274061, “Inhibition of Urease by Disulfiram, an FDA-Approved Thiol Reagent Used in Humans” (Molecules, 2016).

How the values were obtained:
[1] = test system: Citrullus vulgaris urease (CVU); test: Inhibition of CVU urease activity after 1 h incubation with inhibitor (phenol red assay); assay type: biochemical; conditions: for IC50: CVU incubated 1 h at 37 °C with inhibitor, 2 mM urea, pH 6.8; for Plateau (% of Initial): residual activity at plateau from the fit, 1 h at 37 °C
Protocol: (§1) The specific ureolytic activity was assayed spectrophotometrically at 37 °C in a Fluostar Omega (BMG LABTECH Inc, Cary, NC, USA) spectrometer. The reaction was monitoring by the increase of ammonia concentration following the absorbance at 558 nm by The Phenol Red Assay, taking similar considerations as the one described elsewhere. The standard urease test consisted in 0.3 mL of reaction buffer: 0.5 mM MES, 0.016 mM phenol red, and 50 mM urea, at pH 6.8. All assays were initiated by the addition of the enzyme (≈0.6 ng/mL). Initial velocity rates were determined from the initial linear portion of the reaction course-times. Saturation kinetics experiments were performed under the same conditions, except that different concentrations of urea were used (0.5 to 50 mM), and data were fitted to Michaelis-Menten model (Equation (1)). All experiments presented were reproduced at least three times.
To evaluate the saturation of CVU with inhibitors, enzyme was incubated for one hour at 37 °C with different concentrations of inhibitors in the standard reaction mixture, the reactions were started by the addition of urea to a final concentration of 2 mM, followed by the measurement of the residual activity. Percentages of residual activity were plotted against inhibitor concentration. Since two types of behavior were observed, two different equations were used to fit the data. In one case, we observed a trend that produced a full loss of activity (Equation (3)), and in the other case a partial inhibition is observed, meaning that at enzyme saturation activity value is non-zero (Equation (4)).
Equation (3): Full-Inhibition Saturation Kinetics, (3) residual activity (%) = A0 IC50h/IC50h+[I]^h where h, is the Hill coefficient; IC50 is the apparent inhibition constant; [I], is the inhibitor concentration. Residual activity and A0 is the same as in Equation (2).
Equation (4): Partially-Inhibition Saturation Kinetics, (4) residual activity (%)= A0 IC50h/IC50h+[I]^h+plateau where parameters and variables are same as in Equation (3), with the difference that a plateau is included.
Inhibition of CVU by Aldrithiol (2,2′-dipyridyl disulphide, here in after called DPS for dipyridine sulfide), captopril ((S)-1-(3-Mercapto-2-methyl-1-oxopropyl)-L-proline), bithionol (2,2′-Sulfanediylbis(4,6-dichlorophenol)) and quercetin were performed in a similar manner as for inhibition experiments with DSF. These inhibitors were purchased from Sigma-Aldrich (Toluca, Mexico). Inhibition kinetics data were fitted to the indicated equation. The protection of the activity by a given inhibitor (called I2), at a concentration equal to the IC50 value, over the inhibition produced by DPS was monitored measuring changes in initial velocity and plotting the percentage of inhibition for each treatment and expressed as mean ± SEM. Student t test was used to estimate statistical significance. Measurements of variance were performed using a one-way ANOVA. Differences were considered significant when p was less than 0.05. All experiments were performed at least three times, and in all cases the SEM justifies the accuracy of the values, except in the case of inhibition kinetics of bithionol and quercetin in which SEM is higher than 10% of the estimated value.

[2] = test system: Citrullus vulgaris urease (CVU); test: Time courses of inactivation of CVU pre-incubated with DSF; assay type: biochemical; conditions: 37 °C
Protocol: as §1
To evaluate the time and concentration-dependence of the inhibition of urease activity, the initial rates of urea hydrolysis were measured in the standard reaction mixture in the presence of DSF (tetraethylthiuram disulphide), (C2H5)2N(C=S)S–S(S=C)N(C2H5)2, during different incubation periods. DSF was purchased from Sigma-Aldrich (Toluca, Mexico). In these experiments urease reactions were started by the addition of urea to a final concentration of 2 mM. The residual activity in percentage of the initial was plotted against the time of incubation and fitted to an exponential decay equation with a plateau (Equation (2)).
Equation (2): Enzyme inactivation, (2) residual activity = (A0−plateau)(e^−kt)+plateau, where the residual activity is the observed activity upon the inhibition; A0, is the activity observed in the absence of the inhibitor; the plateau, is the value of Y minimum; k, is the observed one phase kinetic constant, and t is the time of incubation. Activity was transformed to percentage, where activity in the absence of DSF is 100%.

[3] = test system: Citrullus vulgaris urease (CVU); test: Inhibition pattern: urea saturation kinetics of CVU at fixed/variable DSF concentrations; assay type: biochemical
Protocol: as §1, with “three times. For the inhibition pattern urea saturation kinetics experiments were performed at fixed/variable concentrations of DSF and data were globally fitted to Equation (5).” for “three times.”

[4] = molecular target: Citrullus vulgaris urease (CVU); test: Binding equilibrium by intrinsic fluorescence quenching; conditions: 1 h after addition, 37 °C, read-out: DSF dissociation constant (Kd)
Protocol: The binding of DSF was monitored after apparent equilibrium by measuring the intrinsic tryptophan fluorescence intensity changes at 37 °C using a spectrometer (Fluostar Omega, BMG). CVU was excited at 290 nm, and fluorescence intensity was recorded at 340 nm after an hour of incubation at 37 °C in the absence or presence of different concentrations of DSF. In order to discard solvent fluorescent changes, a control experiment was performed in which the different volumes of solvent (same as in the titration volumes used in ligand additions) were added to urease. Fluorescence intensity changes were plotted against the DSF concentrations and fitted to […]. Equation (6): Fluorescence binding saturation, (6) ΔIF = Bmax [DSF]/Kd+[DSF] where ΔIF, is the change in fluorescence intensity at 340 nm; Bmax, is the maximum ΔIF and corresponds to the maximum binding; [DSF], is the disulfiram concentration and Kd, is the dissociation constant.

Row | SMILES | IC50 [1] [µM] | Plateau (% of Initial) [1] | apparent half-life time of inactivation ([2]; 50 µM DSF) [min] | kobs of inactivation ([2]; 50 µM DSF) [min⁻¹] | plateau, % of the initial velocity ([2]; 50 µM DSF) | apparent half-life time of inactivation ([2]; 80 µM DSF) [min] | kobs of inactivation ([2]; 80 µM DSF) [min⁻¹] | plateau, % of the initial velocity ([2]; 80 µM DSF) | Inhibition mechanism ([3]; Lineweaver–Burk plots of the inhibition pattern) | Ki ([3]; global fit to non-competitive inhibition, Equation (5), read-out: Inhibition constant (Ki)) [µM] | Kd [4] [µM]
1 | CC(CS)C(=O)N1CCC[C@H]1C(=O)O (stereo partly drawn) [Captopril, (S)-1-(3-Mercapto-2-methyl-1-oxopropyl)-L-proline] | 524 ± 39.6 | 0.00 % of Initial | – | – | – | – | – | – | – | – | –
2 | Oc1c(Cl)cc(Cl)cc1Sc1cc(Cl)cc(Cl)c1O [Bithionol, 2,2′-Sulfanediylbis(4,6-dichlorophenol)] | 376 ± 120 | 34.53 ± 18.23 % of Initial | – | – | – | – | – | – | – | – | –
3 | CCN(CC)C(=S)SSC(=S)N(CC)CC [DSF, tetraethylthiuram disulphide] | – | 0.00 % of Initial | 13.80 | 0.050 ± 0.007 | 63.60% ± 1.40 | 7.50 | 0.092 ± 0.024 | 53.48% ± 3.05 | non-competitive inhibition mechanism | 67.6 ± 7 | 54.9 ± 3.9
4 | O=c1c(O)c(-c2ccc(O)c(O)c2)oc2cc(O)cc(O)c12 [Quercetin, quercetin] | 155 ± 10.2 | 58.86 ± 1.52 % of Initial | – | – | – | – | – | – | – | – | –
